For 13 compounds, EC50 results are on record in patent US8889854B2, “C-17 bicyclic amines of triterpenoids with HIV maturation inhibitory activity” (priority 2012, dated 2014).

Each structure is given as a SMILES string. pEC50: −log10 of the molar value.

The subject of the first assay is recombinant NL4-3 virus (Renilla luciferase in nef, Gag P373S; NLRluc). Briefly: HIV Cell Culture Assay (luciferase reporter virus in MT-2 cells). In kind it is cell-based. The following applies: Renilla, NL43, MT-2 cells infected for 4-5 days with NLRluc recombinants; luciferase activity. The method, then:
MT-2 cells and 293T cells were obtained from the NIH AIDS Research and Reference Reagent Program. MT-2 cells were propagated in RPMI 1640 media supplemented with 10% heat inactivated fetal bovine serum, […]. The 293T cells were propagated in DMEM media supplemented with 10% heat inactivated fetal bovine serum (FBS), 100 units/mL penicillin G and 100 μg/mL streptomycin. The proviral DNA clone of NL4-3 was obtained from the NIH AIDS Research and Reference Reagent Program. A recombinant NL4-3 virus, in which a section of the nef gene from NL4-3 was replaced with the Renilla luciferase gene, was used as a reference virus. In addition, residue Gag P373 was converted to P373S. Briefly, the recombinant virus was prepared by transfection of the altered proviral clone of NL4-3. Transfections were performed in 293T cells using LipofectAMINE PLUS from Invitrogen (Carlsbad, Calif.), according to manufacturer's instruction. The virus was titered in MT-2 cells using luciferase enzyme activity as a marker. Luciferase was quantitated using the Dual Luciferase kit from Promega (Madison, Wis.), with modifications to the manufacturer's protocol. The diluted Passive Lysis solution was pre-mixed with the re-suspended Luciferase Assay Reagent and the re-suspended Stop & Glo Substrate (2:1:1 ratio). Fifty (50) μL of the mixture was added to each aspirated well on assay plates and luciferase activity was measured immediately on a Wallac TriLux (Perkin-Elmer). Antiviral activities of inhibitors toward the recombinant virus were quantified by measuring luciferase activity in cells infected for 4-5 days with NLRluc recombinants in the presence serial dilutions of the inhibitor. Table 1 is the key for the data in Table 2.
Background: A reporter such as luciferase makes a cellular process visible.
The term pEC50 denotes the EC50 on a negative log10 scale, so that one unit is a factor of ten. As for `C=C(C)[C@@H]1CC[C@]2(NCCN3C[C@H]4C[C@@H](C3)N4S(C)(=O)=O)CC[C@]3(C)[C@H](CC[C@@H]4[C@@]5(C)CC=C(c6ccc(C(=O)O)cc6)C(C)(C)[C@@H]5CC[C@]43C)[C@@H]12` [Example 14, 4-((1R,3aS,5aR,5bR,7aR,11aS,11bR,13aR,13bR)-5a,5b,8,8,11a-pentamethyl-3a-((2-((1R,5S)-6-(methylsulfonyl)-3,6-diazabicyclo[3.1.1]heptan-3-yl)ethyl)amino)-1-(prop-1-en-2-yl)-2,3,3a,4,5,5a,5b,6,7,7a,8,11,11a,11b,12,13,13a,13b-octadecahydro-1H-cyclopenta[a]chrysen-9-yl)benzoic acid], the negative-log EC50 (pEC50) is 8.49.
Still for that read-out and setting: next, `C=C(C)[C@@H]1CC[C@]2(NCCN3CCC4(C3)CN(S(C)(=O)=O)C4)CC[C@]3(C)[C@H](CC[C@@H]4[C@@]5(C)CC=C(c6ccc(C(=O)O)cc6)C(C)(C)[C@@H]5CC[C@]43C)[C@@H]12` [Example 15, 4-((1R,3aS,5aR,5bR,7aR,11aS,11bR,13aR,13bR)-5a,5b,8,8,11a-pentamethyl-3a-((2-(2-(methylsulfonyl)-2,6-diazaspiro[3.4]octan-6-yl)ethyl)amino)-1-(prop-1-en-2-yl)-2,3,3a,4,5,5a,5b,6,7,7a,8,11,11a,11b,12,13,13a,13b-octadecahydro-1H-cyclopenta[a]chrysen-9-yl)benzoic acid]: 8.78; `C=C(C)[C@@H]1CC[C@]2(NCCN3CC4(C3)CN(S(C)(=O)=O)C4)CC[C@]3(C)[C@H](CC[C@@H]4[C@@]5(C)CC=C(c6ccc(C(=O)O)cc6)C(C)(C)[C@@H]5CC[C@]43C)[C@@H]12` [Example 16, 4-((1R,3aS,5aR,5bR,7aR,11aS,11bR,13 aR,13bR)-5a,5b,8,8,11a-pentamethyl-3a-((2-(6-(methylsulfonyl)-2,6-diazaspiro[3.3]heptan-2-yl)ethyl)amino)-1-(prop-1-en-2-yl)-2,3,3a,4,5,5a,5b,6,7,7a,8,11,11a,11b,12,13,13a,13b-octadecahydro-1H-cyclopenta[a]chrysen-9-yl)benzoic acid]: 8.79.
Same read-out and setting: with `C=C(C)[C@@H]1CC[C@]2(NCCN3[C@@H]4CCC[C@H]3COC4)CC[C@]3(C)[C@H](CC[C@@H]4[C@@]5(C)CC=C(c6ccc(C(=O)O)cc6)C(C)(C)[C@@H]5CC[C@]43C)[C@@H]12` [Example A1, 4-((1R,3aS,5aR,5bR,7aR,11aS,11bR,13aR,13bR)-3a-((2-((1R,5S)-3-oxa-9-azabicyclo[3.3.1]nonan-9-yl)ethyl)amino)-5a,5b,8,8,11a-pentamethyl-1-(prop-1-en-2-yl)-2,3,3a,4,5,5a,5b,6,7,7a,8,11,11a,11b,12,13,13a,13b-octadecahydro-1H-cyclopenta[a]chrysen-9-yl)benzoic acid] the figure was 7.52; with `C=C(C)[C@@H]1CC[C@]2(NCCN3CC4CCC(C3)O4)CC[C@]3(C)[C@H](CC[C@@H]4[C@@]5(C)CC=C(c6ccc(C(=O)O)cc6)C(C)(C)[C@@H]5CC[C@]43C)[C@@H]12` [Example A2, 4-((1R,3aS,5aR,5bR,7aR,11aS,11bR,13aR,13bR)-3a-((2-(8-oxa-3-azabicyclo[3.2.1]octan-3-yl)ethyl)amino)-5a,5b,8,8,11a-pentamethyl-1-(prop-1-en-2-yl)-2,3,3a,4,5,5a,5b,6,7,7a,8,11,11a,11b,12,13,13a,13b-octadecahydro-1H-cyclopenta[a]chrysen-9-yl)benzoic acid], 7.15.
The same measure, in the same setting: with `C=C(C)[C@@H]1CC[C@]2(NCCN3C4COCC3COC4)CC[C@]3(C)[C@H](CC[C@@H]4[C@@]5(C)CC=C(c6ccc(C(=O)O)cc6)C(C)(C)[C@@H]5CC[C@]43C)[C@@H]12` [Example A3, 4-((1R,3aS,5aR,5bR,7aR,11aS,11bR,13aR,13bR)-3a-((2-((1R,5R)-3,7-dioxa-9-azabicyclo[3.3.1]nonan-9-yl)ethyl)amino)-5a,5b,8,8,11a-pentamethyl-1-(prop-1-en-2-yl)-2,3,3a,4,5,5a,5b,6,7,7a,8,11,11a,11b,12,13,13a,13b-octadecahydro-1H-cyclopenta[a]chrysen-9-yl)benzoic acid] the figure was 7.08.
Regarding `C=C(C)[C@@H]1CC[C@]2(NCCN3C4CCC3CC(C)(O)C4)CC[C@]3(C)[C@H](CC[C@@H]4[C@@]5(C)CC=C(c6ccc(C(=O)O)cc6)C(C)(C)[C@@H]5CC[C@]43C)[C@@H]12` (stereo partly drawn) [Example A4, 4-((1R,3aS,5aR,5bR,7aR,11aS,11bR,13aR,13bR)-3a-((2-((1R,3S,5S)-3-hydroxy-3-methyl-8-azabicyclo[3.2.1]octan-8-yl)ethyl)amino)-5a,5b,8,8,11a-pentamethyl-1-(prop-1-en-2-yl)-2,3,3a,4,5,5a,5b,6,7,7a,8,11,11a,11b,12,13,13a,13b-octadecahydro-1H-cyclopenta[a]chrysen-9-yl)benzoic acid], the pEC50 was 8.06.

The same assay, now with this note: Renilla, NL43, MT-2 cells infected for 4-5 days with NLRluc recombinants; luciferase activity; reported as group A/B.
Consider `C=C(C)[C@@H]1CC[C@]2(NCCN3C[C@@H]4C[C@H]3CN4S(C)(=O)=O)CC[C@]3(C)[C@H](CC[C@@H]4[C@@]5(C)CC=C(c6ccc(C(=O)O)cc6)C(C)(C)[C@@H]5CC[C@]43C)[C@@H]12` [Example 11, 4-((1R,3aS,5aR,5bR,7aR,11aS,11bR,13aR,13bR)-5a,5b,8,8,11a-pentamethyl-3a-((2-((1S,4S)-5-(methylsulfonyl)-2,5-diazabicyclo[2.2.1]heptan-2-yl)ethyl)amino)-1-(prop-1-en-2-yl)-2,3,3a,4,5,5a,5b,6,7,7a,8,11,11a,11b,12,13,13a,13b-octadecahydro-1H-cyclopenta[a]chrysen-9-yl)benzoic acid], for which the pEC50 is > 7.00.
On the same count and under the same terms, with `CC(C)[C@@H]1CC[C@]2(NCCN3C[C@@H]4C[C@H]3CN4S(C)(=O)=O)CC[C@]3(C)[C@H](CC[C@@H]4[C@@]5(C)CC=C(c6ccc(C(=O)O)cc6)C(C)(C)[C@@H]5CC[C@]43C)[C@@H]12` [Example 12, 4-((1S,3aS,5aR,5bR,7aR,11aS,11bR,13aR,13bR)-1-isopropyl-5a,5b,8,8,11a-pentamethyl-3a-((2-((1S,4S)-5-(methylsulfonyl)-2,5-diazabicyclo[2.2.1]heptan-2-yl)ethyl)amino)-2,3,3a,4,5,5a,5b,6,7,7a,8,11,11a,11b,12,13,13a,13b-octadecahydro-1H-cyclopenta[a]chrysen-9-yl)benzoic acid] the figure was > 7.00; with `C=C(C)[C@@H]1CC[C@]2(NCCN3C[C@H]4CC[C@@H](C3)N4C(=O)OC(C)(C)C)CC[C@]3(C)[C@H](CC[C@@H]4[C@@]5(C)CC=C(c6ccc(C(=O)O)cc6)C(C)(C)[C@@H]5CC[C@]43C)[C@@H]12` [Example 13, 4-((1R,3aS,5aR,5bR,7aR,11aS,11bR,13aR,13bR)-3a-((2-((1R,5S)-8-(tert-butoxycarbonyl)-3,8-diazabicyclo[3.2.1]octan-3-yl)ethyl)amino)-5a,5b,8,8,11a-pentamethyl-1-(prop-1-en-2-yl)-2,3,3a,4,5,5a,5b,6,7,7a,8,11,11a,11b,12,13,13a,13b-octadecahydro-1H-cyclopenta[a]chrysen-9-yl)benzoic acid], < 7.00; with `C=C(C)[C@@H]1CC[C@]2(NCCN3CC4C(C3)C4NS(C)(=O)=O)CC[C@]3(C)[C@H](CC[C@@H]4[C@@]5(C)CC=C(c6ccc(C(=O)O)cc6)C(C)(C)[C@@H]5CC[C@]43C)[C@@H]12` (stereo partly drawn) [Example 17, 4-((1R,3aS,5aR,5bR,7aR,11aS,11bR,13aR,13bR)-5a,5b,8,8,11a-pentamethyl-3a-((2-(6-(methylsulfonamido)-3-azabicyclo[3.1.0]hexan-3-yl)ethyl)amino)-1-(prop-1-en-2-yl)-2,3,3a,4,5,5a,5b,6,7,7a,8,11,11a,11b,12,13,13a,13b-octadecahydro-1H-cyclopenta[a]chrysen-9-yl)benzoic acid], > 7.00.
Take `C=C(C)[C@@H]1CC[C@]2(NCCN3C[C@H]4C[C@@H]3CS4(=O)=O)CC[C@]3(C)[C@H](CC[C@@H]4[C@@]5(C)CC=C(c6ccc(C(=O)O)cc6)C(C)(C)[C@@H]5CC[C@]43C)[C@@H]12` [Example 18, 4-((1R,3aS,5aR,5bR,7aR,11aS,11bR,13aR,13bR)-3a-((2-((1R,4R)-2,2-dioxido-2-thia-5-azabicyclo[2.2.1]heptan-5-yl)ethyl)amino)-5a,5b,8,8,11a-pentamethyl-1-(prop-1-en-2-yl)-2,3,3a,4,5,5a,5b,6,7,7a,8,11,11a,11b,12,13,13a,13b-octadecahydro-1H-cyclopenta[a]chrysen-9-yl)benzoic acid]: the negative logarithm of the EC50 (pEC50) was > 7.00.
Regarding `C=C(C)[C@@H]1CC[C@]2(NCCN3CC4CC3CO4)CC[C@]3(C)[C@H](CC[C@@H]4[C@@]5(C)CC=C(C6=CCC(C(=O)O)CC6)C(C)(C)[C@@H]5CC[C@]43C)[C@@H]12` (stereo partly drawn) [Example B1, 4-((1R,3aS,5aR,5bR,7aR,11aS,11bR,13aR,13bR)-3a-((2-(2-oxa-5-azabicyclo[2.2.1]heptan-5-yl)ethyl)amino)-5a,5b,8,8,11a-pentamethyl-1-(prop-1-en-2-yl)-2,3,3a,4,5,5a,5b,6,7,7a,8,11,11a,11b,12,13,13a,13b-octadecahydro-1H-cyclopenta[a]chrysen-9-yl)cyclohex-3-enecarboxylic acid], the pEC50 is > 7.00.
